Results taken from ChEMBL document CHEMBL1921797, “Synthesis and biological evaluation of arylated novobiocin analogs as Hsp90 inhibitors” (Bioorg Med Chem Lett, 2011).
pIC50: −log10 of the molar value. Calls of active or inactive are those of the source. The rule behind the calls is not given here.

Columns and labels:
SK-BR-3 = test: Antiproliferative activity against human SKBR3 cells; type: functional, cell-based
MCF7 [1] = test: Antiproliferative activity against human MCF7 cells; type: functional, cell-based
[2] = target: Heat shock protein HSP 90-beta (Homo sapiens) (UniProt P08238); test: Inhibition of human C-terminal domain of Hsp90 in MCF7 cells assessed as Her2 degradation at 0.1 to 100 uM by Western blotting; type: cell-based
Heat shock protein HSP 90-beta (Homo sapiens), sequence (P08238 whole entry, the tested form may be a part): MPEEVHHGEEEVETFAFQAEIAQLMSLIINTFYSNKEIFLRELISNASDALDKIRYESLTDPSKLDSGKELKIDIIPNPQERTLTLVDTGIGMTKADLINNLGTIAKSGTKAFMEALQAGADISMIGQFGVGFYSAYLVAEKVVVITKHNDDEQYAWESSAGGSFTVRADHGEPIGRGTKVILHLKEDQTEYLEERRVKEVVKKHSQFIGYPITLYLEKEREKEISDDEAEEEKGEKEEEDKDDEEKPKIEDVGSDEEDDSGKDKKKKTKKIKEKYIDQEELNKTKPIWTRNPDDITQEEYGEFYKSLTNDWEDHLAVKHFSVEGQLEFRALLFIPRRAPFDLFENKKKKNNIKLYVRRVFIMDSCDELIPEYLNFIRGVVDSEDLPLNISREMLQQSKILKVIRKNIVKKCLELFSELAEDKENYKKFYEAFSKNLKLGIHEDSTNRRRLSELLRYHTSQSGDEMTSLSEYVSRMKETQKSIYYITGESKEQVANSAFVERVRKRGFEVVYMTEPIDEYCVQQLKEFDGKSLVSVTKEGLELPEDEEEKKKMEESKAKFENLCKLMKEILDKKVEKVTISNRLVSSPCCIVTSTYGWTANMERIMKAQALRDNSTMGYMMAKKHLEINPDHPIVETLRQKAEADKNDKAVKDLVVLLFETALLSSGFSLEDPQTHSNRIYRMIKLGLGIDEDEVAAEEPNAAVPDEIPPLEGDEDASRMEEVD

[3] = target: Heat shock protein HSP 90-beta (Homo sapiens) (UniProt P08238); test: Inhibition of human C-terminal domain of Hsp90 in MCF7 cells assessed as Raf degradation at 0.1 to 100 uM by Western blotting; type: cell-based
[4] = target: Heat shock protein HSP 90-beta (Homo sapiens) (UniProt P08238); test: Inhibition of human C-terminal domain of Hsp90 in MCF7 cells assessed as Akt degradation at 0.1 to 100 uM by Western blotting; type: cell-based
[5] = target: Heat shock protein HSP 90-beta (Homo sapiens) (UniProt P08238); test: Induction of human Hsp90 activity in MCF7 cells at 0.1 to 100 uM by Western blotting; type: cell-based
MCF7 [6] = test: Ratio of IC50 for human SKBR3 cells to IC50 for human MCF7 cells; type: functional

Compound	pIC50 (SK-BR-3)	pIC50 (MCF7 [1])	also measured
CC(C)=CCc1cc(C(=O)Nc2cc3ccc(Cc4ccc(O)cc4)c(C)c3oc2=O)ccc1O	4.67	4.49	–
COc1cc(Cc2ccc3cc(NC(=O)c4ccc(O)c(CC=C(C)C)c4)c(=O)oc3c2C)ccc1O	4.97	4.84	–
COc1ccc(Oc2ccc3cc(NC(=O)c4ccc(OC)c(-c5cccc(OC)c5)c4)c(=O)oc3c2C)cc1	< 4.00	< 4.00	–
COc1ccc(Nc2ccc3cc(NC(=O)c4ccc(OC(C)=O)c(CC=C(C)C)c4)c(=O)oc3c2C)cc1	< 4.00	< 4.00	–
COCOc1ccc(Cc2ccc3cc(NC(=O)c4ccc(OC(C)=O)c(CC=C(C)C)c4)c(=O)oc3c2C)cc1	4.87	4.64	–
COc1ccc(Oc2ccc3cc(NC(=O)c4ccc(O)c(CC=C(C)C)c4)c(=O)oc3c2C)cc1	4.37	5.19	inhibition [2]: Active; inhibition [3]: Active; inhibition [4]: Active; Activity [5]: inactive
COc1ccc(Cc2ccc3cc(NC(=O)c4ccc(OC(C)=O)c(CC=C(C)C)c4)c(=O)oc3c2C)cc1	4.63	4.94	inhibition [2]: Active; inhibition [3]: Active; inhibition [4]: Active; Activity [5]: inactive
CC(C)=CCc1cc(C(=O)Nc2cc3ccc(Oc4ccc(C(C)(C)C)cc4)c(C)c3oc2=O)ccc1O	4.17	4.69	–
COc1ccc(Cc2ccc3cc(NC(=O)c4ccc(O)c(CC=C(C)C)c4)c(=O)oc3c2C)cc1	4.96	4.88	–
COc1cccc(-c2cc(C(=O)Nc3cc4ccc(Oc5ccc(C(C)(C)C)cc5)c(C)c4oc3=O)ccc2OC)c1	< 4.00	< 4.00	–
COc1ccc(Cc2ccc3cc(NC(=O)c4ccc(OC)c(-c5cccc(OC)c5)c4)c(=O)oc3c2C)cc1	< 4.00	< 4.00	–
COc1cccc(-c2cc(C(=O)Nc3cc4ccc(Cc5ccccc5)c(C)c4oc3=O)ccc2OC)c1	5.39	5.15	–
COc1ccc(Oc2ccc3cc(NC(=O)c4ccc(OC(C)=O)c(CC=C(C)C)c4)c(=O)oc3c2C)cc1	4.71	4.74	–
COc1cccc(Oc2ccc3cc(NC(=O)c4ccc(OC)c(-c5cccc(OC)c5)c4)c(=O)oc3c2C)c1	< 4.00	< 4.00	–
COc1ccc(Nc2ccc3cc(NC(=O)c4ccc(O)c(CC=C(C)C)c4)c(=O)oc3c2C)cc1	< 4.00	< 4.00	–
COCOc1ccc(Cc2ccc3cc(NC(=O)c4ccc(OC(C)=O)c(CC=C(C)C)c4)c(=O)oc3c2C)cc1OC	4.85	4.83	–
COc1ccc(Nc2ccc3cc(NC(=O)c4ccc(OC)c(-c5cccc(OC)c5)c4)c(=O)oc3c2C)cc1	< 4.00	< 4.00	–
COc1cccc(Oc2ccc3cc(NC(=O)c4ccc(O)c(CC=C(C)C)c4)c(=O)oc3c2C)c1	4.48	4.20	–
COc1ccc(Cc2ccc3cc(NC(=O)c4ccc(O)c(CC=C(C)C)c4)c(=O)oc3c2C)cc1OC	< 4.00	4.86	Ratio IC50 (MCF7 [6]): 10
CC(=O)Oc1ccc(C(=O)Nc2cc3ccc(Oc4ccc(C(C)(C)C)cc4)c(C)c3oc2=O)cc1CC=C(C)C	4.14	4.12	–
COc1cccc(Cc2ccc3cc(NC(=O)c4ccc(O)c(CC=C(C)C)c4)c(=O)oc3c2C)c1	4.83	4.71	–
COc1cccc(Oc2ccc3cc(NC(=O)c4ccc(OC(C)=O)c(CC=C(C)C)c4)c(=O)oc3c2C)c1	4.86	4.80	–
